In patent US20240174695A1, “Spirocycle Containing Bicyclic Heteroaryl Compounds” (Protego Biopharma, Inc., priority 2022, published 2024):

System: Recombinant amyloidogenic full length light chain protein WIL-FL T46L
Assay: Differential Scanning Fluorimetry Assay (thermal shift assay); also: test concentration or dose not given here
Type: binding
Conditions: Thermal Shift Protein Stability Kit (Biotium), 96-well plates; protein and compounds incubated at RT for 30 min before adding the dye
In short: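 E. coli-expressed full-length WIL-FL T46L light chain pre-incubated with compound 30 min at RT before dye addition. Tm obtained by curve fitting of the dye thermal-melt signal; value is ΔTm, compound minus vehicle, in °C.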

| SMILES | DSF temperature shift: [Tm]compound−[Tm]vehicle |
| --- | --- |
| Cc1cc(N2CCC(C)(c3ccccc3)C2)cn2nc(CCN3CC4(CCN(c5nccn6ccnc56)CC4)NC3=O)nc12 (stereo not shown) [Compound 1, 8-(Imidazo[1,2-a]pyrazin-8-yl)-3-(2-(8-methyl-6-(3-methyl-3-phenylpyrrolidin-1-yl)-[1,2,4]triazolo[1,5-a]pyridin-2-yl)ethyl)-1,3,8-triazaspiro[4.5]decan-2-one] | ***** (>2.5° C.=*****) |
| Cc1cc(OC[C@@H](C)c2ccccc2)cn2nc(CCN3CC4(CCN(c5nccn6cncc56)CC4)NC3=O)nc12 [Compound 12] | ***** (>2.5° C.=*****) |
| Cc1cc(OC[C@H](C)c2ccccc2)cn2nc(CCN3CC4(CCN(c5cccnc5C(F)(F)F)CC4)NC3=O)nc12 [Compound 104] | ** (>0.5-1° C.=**) |
| Cc1cc(N2CC[C@@](C)(c3ccccc3)C2)cn2nc(CCN3CC4(CN(c5ccnc(O)c5)C4)NC3=O)nc12 [Compound 27] | ***** (>2.5° C.=*****) |
| Cc1cc(OC[C@H](C)c2ccccc2)cn2nc(CCN3CC4(CCN(c5nc(F)cc(F)n5)CC4)NC3=O)nc12 [Compound 109] | **** (>1.5-2.5° C.=****) |
| Cc1cc(OC[C@H](C)c2ccccc2)cn2nc(C(C)CN3CC4(CN(c5ccnc(O)c5)C4)NC3=O)nc12 (stereo partly drawn) [Compound 68, 2-(2-hydroxy-4-pyridyl)-7-[2-[8-methyl-6-[(2R)-2-phenylpropoxy]-[1,2,4]triazolo[1,5-a]pyridin-2-yl]propyl]-2,5,7-triazaspiro[3.4]octan-6-one] | **** (>1.5-2.5° C.=****) |
| Cc1cnc(N2CCC3(CC2)CN(CCc2nc4c(C)cc(OC[C@H](C)c5ccccc5)cn4n2)C(=O)N3)s1 [Compound 129] | ***** (>2.5° C.=*****) |
| Cc1cc(OC[C@H](C)c2ccccc2)cn2nc(C(C)(O)CN3CC4(CCN(C(=O)Cc5ncnn5C)CC4)NC3=O)nc12 (stereo partly shown) [Compound 66] | *** (>1-1.5° C.=***) |
| Cc1cc(N2CC[C@@](C)(c3ccccc3)C2)cn2nc(C(O)CN3CC4(CCN(c5ccnc(O)c5)CC4)NC3=O)nc12 (stereo partly shown) [Compound 21] | ***** (>2.5° C.=*****) |
| COC(=O)c1cc(N2CC3(CN(CC(O)c4nc5c(C)cc(OC[C@H](C)c6ccccc6)cn5n4)C(=O)N3)C2)ccn1 (stereo partly shown) [Compound 137] | ***** (>2.5° C.=*****) |
| CNC(=O)c1cc(N2CCC3(CC2)CN(CC(C)(O)c2nc4c(C)cc(OC[C@H](C)c5ccccc5)cn4n2)C(=O)N3)ccn1 (stereo partly shown) [Compound 132] | **** (>1.5-2.5° C.=****) |
| Cc1cc(N2CCC(C)(c3ccccc3)C2)cn2nc(CCN3CCCC4(CCN(c5nccn6cnnc56)CC4)C3=O)nc12 (stereo in doubt) [Compound 28, (R)-9-([1,2,4]triazolo[4,3-a]pyrazin-8-yl)-2-(2-(8-methyl-6-(3-methyl-3-phenylpyrrolidin-1-yl)-[1,2,4]triazolo[1,5-a]pyridin-2-yl)ethyl)-2,9-diazaspiro[5.5]undecan-1-one] | ***** (>2.5° C.=*****) |
| Cc1cc(F)ncc1N1CCC2(CC1)CN(CC(O)c1nc3c(C)cc(OCC4(c5ccccc5)CC4)cn3n1)C(=O)N2 (stereo not shown) [Compound 36] | **** (>1.5-2.5° C.=****) |
| COc1cc(N2CCC3(CC2)CN(CCc2nc4c(C)cc(OC[C@H](C)c5ccccc5)cn4n2)C(=O)N3)ccn1 [Compound 143] | **** (>1.5-2.5° C.=****) |
| Cc1c(CCN2C(=O)NC3(CCN(c4nccn5ccnc45)CC3)C2=O)nc2cc(O[C@H](C)c3ccccc3)ccn12 [Compound 14, 8-(Imidazo[1,2-a]pyrazin-8-yl)-3-(2-(3-methyl-7-(1-phenylethoxy)imidazo[1,2-a]pyridin-2-yl)ethyl)-1,3,8-triazaspiro[4.5]decane-2,4-dione] | ** (>0.5-1° C.=**) |
| Cc1cc(OCC2(c3ccccc3)CC2)cn2nc(C(O)CN3CC4(CCN(c5cc(F)ncn5)CC4)NC3=O)nc12 (stereo not shown) [Compound 59] | **** (>1.5-2.5° C.=****) |
| Cc1cc(OC[C@H](C)c2ccccc2)cn2nc(C(O)CN3CC4(CN(c5ccnc(O)c5)C4)NC3=O)nc12 (stereo partly shown) [Compound 84] | ***** (>2.5° C.=*****) |
| Cc1cc(OC[C@H](C)c2ccccc2)cn2nc(C(C)(O)CN3CC4(CCN(c5ccnc(O)c5)CC4)NC3=O)nc12 (stereo partly shown) [Compound 67] | **** (>1.5-2.5° C.=****) |
| Cc1cc(OCC2(c3ccccc3)CC2)cn2nc(C(O)CN3CC4(CCN(C(=O)Cc5nnc[nH]5)CC4)NC3=O)nc12 (stereo not shown) [Compound 32] | **** (>1.5-2.5° C.=****) |
